The results in this text go back to patent US20250145665A1, “MACROCYCLIC PEPTIDES USEFUL AS MODULATORS OF TNF ALPHA” (Bristol-Myers Squibb Company, priority 2023, published 2025).

Starred links: 1 amine or outer side, 2 acyl side, 3 side chain; linkers in the order of their positions; H or OH if unused. Positions of bridges follow the written chain, without caps; N, C: chain ends. Non-standard residues stand in square brackets, D forms with d. Residues, ends and D or L forms follow the SMILES beside them. *: point of attachment. Bip(4'-NHCO-C6H4-3-CH2COOH) = N[C@@H](Cc1ccc(-c2ccc(NC(=O)c3cccc(CC(=O)O)c3)cc2)cc1)C(=O)O; X56 = O=C(O)COc1cccc(NC(=O)c2ccc(-c3ccc(C[C@H](N[*:1])C(=O)[*:2])cc3)cc2)c1; X5 = Cn1nc(C(=O)Nc2ccc(-c3ccc(C[C@H](N[*:1])C(=O)[*:2])cc3)cc2)c2ccccc21; Bip(4'-NH) = O=C([C@H](Cc1ccc(-c2ccc(N[*:3])cc2)cc1)N[*:1])[*:2]; Bip(4'-COOH) = N[C@@H](Cc1ccc(-c2ccc(C(=O)O)cc2)cc1)C(=O)O; Bip(4'-NHAc) = CC(=O)Nc1ccc(-c2ccc(C[C@H](N)C(=O)O)cc2)cc1; Ala(morpholin-4-yl) = N[C@@H](CN1CCOCC1)C(=O)O; Benzoyl(3-OCH2COOH) = O=C(O)COc1cccc(C(=O)*)c1; Phe(3-CONH2) = NC(=O)c1cccc(C[C@H](N)C(=O)O)c1; X12 = N=C(NCCO)NCCC[C@@H](N[*:1])C(=O)[*:2]; Asp(3,3-Me2) = CC(C)(C(=O)O)[C@H](N)C(=O)O; Bip = N[C@@H](Cc1ccc(-c2ccccc2)cc1)C(=O)O; X13 = O=C([C@H](Cc1ccc[nH]1)N[*:1])[*:2]; X31 = Cn1c(C(=O)*)cc2cccc(Cl)c21; 2Pal = N[C@@H](Cc1ccccn1)C(=O)O; 3Pal = N[C@@H](Cc1cccnc1)C(=O)O; 2Thi = N[C@@H](Cc1cccs1)C(=O)O; Cha = N[C@@H](CC1CCCCC1)C(=O)O; d(αMeP) = C[C@]1(C(=O)O)CCCN1; Chg = N[C@H](C(=O)O)C1CCCCC1; Tle = CC(C)(C)[C@H](N)C(=O)O; hLeu = CC(C)CC[C@H](N)C(=O)O; Sar = CNCC(=O)O

For orientation: IC50 means the concentration needed to halve the response being measured.

For this test, the target named is TNFα (Homo sapiens, UniProt P01375). Put plainly: TNF-Induced HEK-Blue Assay. Type of test: cell-based. The note with it: HEK-Blue-CD40L cells, NF-kB-driven secreted alkaline phosphatase reporter; TNFα 0.5 ng/ml; 18 h; read-out: TNF induced HEK-Blue assay IC50 value.
TNFα, sequence (P01375 77-233 limits assumed): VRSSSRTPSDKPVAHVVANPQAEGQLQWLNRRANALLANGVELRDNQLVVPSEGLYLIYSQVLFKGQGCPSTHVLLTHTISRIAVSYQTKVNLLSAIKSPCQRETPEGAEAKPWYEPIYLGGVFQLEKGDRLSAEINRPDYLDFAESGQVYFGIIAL
For the compound `CC(C)C[C@@H]1NC(=O)[C@H](Cc2ccc[nH]2)NC(=O)[C@H](C(C)C)NC(=O)[C@@H]2CCCN2C(=O)[C@H](C(C)C)NC(=O)[C@@H](CCCNC(=N)N)NC(=O)[C@H](CC(=O)O)NC(=O)[C@H](Cc2cnc[nH]2)NC(=O)CN(C)C(=O)[C@H](Cc2ccc(-c3ccc(NC(=O)c4cccc(CC(=O)O)c4)cc3)cc2)NC(=O)[C@H](Cc2ccc(-c3ccc(C(=O)O)cc3)cc2)NC(=O)[C@H](C(C)(C)C)NC(=O)CSC[C@@H](C(=O)NCC(N)=O)NC1=O` [Example 597] ({CH2CO}-[Tle][Bip(4'-COOH)][Bip(4'-NHCO-C6H4-3-CH2COOH)][Sar]HD[dR]VPV[X13]LCG-NH2; thioether N-13), the IC50 was under 50 nM.

For `CC(C)C[C@@H]1NC(=O)[C@H](Cc2ccc(O)cc2)NC(=O)[C@H](C2CCCCC2)NC(=O)[C@@H]2CCCN2C(=O)[C@H](C(C)C)NC(=O)[C@@H](CCCNC(=N)N)NC(=O)[C@H](CC(=O)O)NC(=O)[C@@H]2CCCN2C(=O)CN(C)C(=O)[C@H](Cc2ccc(-c3ccccc3)cc2)NC(=O)[C@H](Cc2ccc(-c3ccccc3)cc2)NC(=O)[C@H](CN2CCOCC2)NC(=O)CSC[C@@H](C(=O)NCC(N)=O)NC1=O` [Example 209] ({CH2CO}-[Ala(morpholin-4-yl)][Bip][Bip][Sar]PD[dR]VP[Chg]YLCG-NH2; thioether N-13), the IC50 is 200 to 2000 nM.

On to `CC(C)C[C@@H]1NC(=O)[C@H](Cc2ccc(O)cc2)NC(=O)[C@H](C(C)C)NC(=O)[C@@H]2CCCN2C(=O)[C@H](Cc2cccnc2)NC(=O)[C@H](CCCNC(=N)N)NC(=O)[C@H](CC(=O)O)NC(=O)[C@@H]2CCCN2C(=O)CN(C)C(=O)[C@H](Cc2ccc(-c3ccccc3)cc2)NC(=O)[C@H](Cc2ccc(-c3ccccc3)cc2)NC(=O)[C@H](CN2CCOCC2)NC(=O)CSC[C@@H](C(=O)NCC(N)=O)NC1=O` [Example 116] ({CH2CO}-[Ala(morpholin-4-yl)][Bip][Bip][Sar]PDR[3Pal]PVYLCG-NH2; thioether N-13), for which the IC50 fell in the range of 50 to 200 nM.

`CC[C@H](C)[C@@H]1NC(=O)[C@@H]2CCCN2C(=O)[C@H]([C@@H](C)CC)NC(=O)[C@@H](CCCNC(=N)N)NC(=O)[C@H](CC(=O)O)NC(=O)[C@H](Cc2ccccc2)NC(=O)CN(C)C(=O)[C@H](Cc2ccc(-c3ccc(NC(=O)c4nn(C)c5ccccc45)cc3)cc2)NC(=O)[C@H](Cc2ccc(-c3ccc(C(=O)O)cc3)cc2)NC(=O)[C@H](C(C)(C)C)NC(=O)CSC[C@@H](C(=O)NCC(N)=O)NC(=O)[C@H](CC(C)C)NC(=O)[C@H](Cc2cnc[nH]2)NC1=O` [Example 334] ({CH2CO}-[Tle][Bip(4'-COOH)][X5][Sar]FD[dR]IPIHLCG-NH2; thioether N-13): the IC50 is under 50 nM.

As for `CC[C@H](C)[C@@H]1NC(=O)[C@@H](CCCNC(=N)N)NC(=O)[C@H](CC(=O)O)NC(=O)[C@H](Cc2cnc[nH]2)NC(=O)CN(C)C(=O)[C@H](Cc2ccc(-c3ccc(C(=O)Nc4cccc(OCC(=O)O)c4)cc3)cc2)NC(=O)[C@H](Cc2ccc(-c3ccc(C(=O)O)cc3)cc2)NC(=O)[C@H](Cc2cccc(C(N)=O)c2)NC(=O)CSC[C@@H](C(=O)NCC(N)=O)NC(=O)[C@H](CC(C)C)NC(=O)[C@H](Cc2cnc[nH]2)NC(=O)[C@H](C(C)C)NC(=O)[C@@H]2CCCN2C1=O` [Example 632] ({CH2CO}-[Phe(3-CONH2)][Bip(4'-COOH)][X56][Sar]HD[dR]IPVHLCG-NH2; thioether N-13), the IC50 lay in the range of 50 to 200 nM.

Consider `CC(C)CC[C@@H]1NC(=O)CSC[C@@H](C(=O)NCC(N)=O)NC(=O)[C@H](CC(C)C)NC(=O)[C@H](CCCNC(=N)N)NC(=O)[C@H](C(C)C)NC(=O)[C@@H]2CCCN2C(=O)[C@H](C(C)C)NC(=O)[C@H](CCCNC(=N)N)NC(=O)[C@H](CC(=O)O)NC(=O)[C@@H]2CCCN2C(=O)CN(C)C(=O)[C@H](Cc2ccc(-c3ccccc3)cc2)NC(=O)[C@H](Cc2ccc(-c3ccccc3)cc2)NC1=O` [Example 28] ({CH2CO}-[hLeu][Bip][Bip][Sar]PDRVPVRLCG-NH2; thioether N-13), for which the IC50 is 200 to 2000 nM.

With `CC(C)C[C@@H]1NC(=O)[C@H](Cc2cccs2)NC(=O)[C@H](C(C)C)NC(=O)[C@@H]2CCCN2C(=O)[C@H](C(C)C)NC(=O)[C@@H](CCCNC(=N)N)NC(=O)[C@H](CC(=O)O)NC(=O)[C@H](Cc2ccccn2)NC(=O)CN(C)C(=O)[C@H](Cc2ccc(-c3ccc(NC(=O)c4cccc(CC(=O)O)c4)cc3)cc2)NC(=O)[C@H](Cc2ccc(-c3ccccc3)cc2)NC(=O)[C@H](CC2CCCCC2)NC(=O)CSC[C@@H](C(=O)NCC(N)=O)NC1=O` [Example 618] ({CH2CO}-[Cha][Bip][Bip(4'-NHCO-C6H4-3-CH2COOH)][Sar][2Pal]D[dR]VPV[2Thi]LCG-NH2; thioether N-13), the IC50 was in the range of 50 to 200 nM.

For `CC(C)C[C@@H]1NC(=O)[C@H](CCCNC(=N)N)NC(=O)[C@H](C(C)C)NC(=O)[C@@H]2CCCN2C(=O)[C@H](C(C)C)NC(=O)[C@@H](CCCNC(=N)NCCO)NC(=O)[C@H](CC(=O)O)NC(=O)[C@@H]2CCCN2C(=O)CN(C)C(=O)[C@H](Cc2ccc(-c3ccc(NC(=O)c4nn(C)c5ccccc45)cc3)cc2)NC(=O)[C@H](Cc2ccc(-c3ccccc3)cc2)NC(=O)[C@H](CN2CCOCC2)NC(=O)CSC[C@@H](C(=O)NCC(N)=O)NC1=O` [Example 388] ({CH2CO}-[Ala(morpholin-4-yl)][Bip][X5][Sar]PD[X12]VPVRLCG-NH2; thioether N-13), the IC50 is under 50 nM.

Regarding `CC(C)C[C@@H]1NC(=O)[C@H](Cc2ccc(O)cc2)NC(=O)[C@H](C(C)C)NC(=O)[C@@H]2CCCN2C(=O)[C@H](C(C)C)NC(=O)[C@H](CCCNC(=N)N)NC(=O)[C@H](C(C)(C)C(=O)O)NC(=O)[C@H](Cc2ccc(O)cc2)NC(=O)CN(C)C(=O)[C@H](Cc2ccc(-c3ccccc3)cc2)NC(=O)[C@H](Cc2ccc(-c3ccccc3)cc2)NC(=O)[C@H](CN2CCOCC2)NC(=O)CSC[C@@H](C(=O)NCC(N)=O)NC1=O` [Example 100] ({CH2CO}-[Ala(morpholin-4-yl)][Bip][Bip][Sar]Y[Asp(3,3-Me2)]RVPVYLCG-NH2; thioether N-13), the IC50 lay within 200 to 2000 nM.

Take `CC(C)C[C@@H]1NC(=O)[C@H](CCCNC(=N)N)NC(=O)[C@H](C(C)C)NC(=O)[C@@H]2CCCN2C(=O)[C@H](Cc2cccnc2)NC(=O)[C@@H](CCCNC(=N)N)NC(=O)[C@H](CC(=O)O)NC(=O)[C@H](Cc2ccc(O)cc2)NC(=O)CN(C)C(=O)[C@H](Cc2ccc(-c3ccccc3)cc2)NC(=O)[C@H](Cc2ccc(-c3ccccc3)cc2)NC(=O)[C@H](CN2CCOCC2)NC(=O)CSC[C@@H](C(=O)NCC(N)=O)NC1=O` [Example 117] ({CH2CO}-[Ala(morpholin-4-yl)][Bip][Bip][Sar]YD[dR][3Pal]PVRLCG-NH2; thioether N-13): the concentration for half-maximal inhibition (IC50) fell in the range of 200 to 2000 nM.

With `CC(C)C[C@@H]1NC(=O)[C@H](Cc2ccc(O)cc2)NC(=O)[C@H](C(C)C)NC(=O)[C@@H]2CCCN2C(=O)[C@H](C(C)C)NC(=O)[C@H](CCCNC(=N)N)NC(=O)[C@H](CC(=O)O)NC(=O)[C@@]2(C)CCCN2C(=O)CN(C)C(=O)[C@H](Cc2ccc(-c3ccccc3)cc2)NC(=O)[C@H](Cc2ccc(-c3ccccc3)cc2)NC(=O)[C@H](CN2CCOCC2)NC(=O)CSC[C@@H](C(=O)NCC(N)=O)NC1=O` [Example 101] ({CH2CO}-[Ala(morpholin-4-yl)][Bip][Bip][Sar][d(αMeP)]DRVPVYLCG-NH2; thioether N-13), the IC50 fell in the range of 50 to 200 nM.

For `CC[C@H](C)[C@@H]1NC(=O)[C@@H](CCCNC(=N)N)NC(=O)[C@H](CC(=O)O)NC(=O)[C@H](Cc2cnc[nH]2)NC(=O)CN(C)C(=O)[C@H](Cc2ccc(-c3ccc(NC(=O)c4cc5cccc(Cl)c5n4C)cc3)cc2)NC(=O)[C@H](Cc2ccc(-c3ccccc3)cc2)NC(=O)[C@H](CC2CCCCC2)NC(=O)CSC[C@@H](C(=O)NCC(N)=O)NC(=O)[C@H](CC(C)C)NC(=O)[C@H](Cc2cnc[nH]2)NC(=O)[C@H](C(C)C)NC(=O)[C@@H]2CCCN2C1=O` [Example 326] ({CH2CO}-[Cha][Bip][Bip(4'-NH)](X31)[Sar]HD[dR]IPVHLCG-NH2; thioether N-13), the IC50 lay within 50 to 200 nM.

As to `CC[C@H](C)[C@@H]1NC(=O)[C@@H](CCCNC(=N)N)NC(=O)[C@H](CC(=O)O)NC(=O)[C@H](Cc2cnc[nH]2)NC(=O)CN(C)C(=O)[C@H](Cc2ccc(-c3ccc(NC(C)=O)cc3)cc2)NC(=O)[C@H](Cc2ccc(-c3ccccc3)cc2)NC(=O)[C@H](CN2CCOCC2)NC(=O)CSC[C@@H](C(=O)NCC(N)=O)NC(=O)[C@H](CC(C)C)NC(=O)[C@H](Cc2cnc[nH]2)NC(=O)[C@H](C(C)C)NC(=O)[C@@H]2CCCN2C1=O` [Example 238] ({CH2CO}-[Ala(morpholin-4-yl)][Bip][Bip(4'-NHAc)][Sar]HD[dR]IPVHLCG-NH2; thioether N-13), the concentration for half-maximal inhibition (IC50) was under 50 nM.

Turning to `CC(C)C[C@@H]1NC(=O)[C@H](Cc2ccc(O)cc2)NC(=O)[C@H](C(C)C)NC(=O)[C@@H]2CCCN2C(=O)[C@H](Cc2cccnc2)NC(=O)[C@H](CCCNC(=N)N)NC(=O)[C@H](CC(=O)O)NC(=O)[C@H](Cc2ccc(O)cc2)NC(=O)CN(C)C(=O)[C@H](Cc2ccc(-c3ccccc3)cc2)NC(=O)[C@H](Cc2ccc(-c3ccccc3)cc2)NC(=O)[C@H](CN2CCOCC2)NC(=O)CSC[C@@H](C(=O)NCC(N)=O)NC1=O` [Example 115] ({CH2CO}-[Ala(morpholin-4-yl)][Bip][Bip][Sar]YDR[3Pal]PVYLCG-NH2; thioether N-13), the IC50 lay in the range of 200 to 2000 nM.

With `CC[C@H](C)[C@@H]1NC(=O)[C@@H](CCCNC(=N)N)NC(=O)[C@H](CC(=O)O)NC(=O)[C@H](Cc2cnc[nH]2)NC(=O)CN(C)C(=O)[C@H](Cc2ccc(-c3ccc(NC(=O)c4cccc(OCC(=O)O)c4)cc3)cc2)NC(=O)[C@H](Cc2ccc(-c3ccccc3)cc2)NC(=O)[C@H](CC2CCCCC2)NC(=O)CSC[C@@H](C(=O)NCC(N)=O)NC(=O)[C@H](CC(C)C)NC(=O)[C@H](Cc2cnc[nH]2)NC(=O)[C@H](C(C)C)NC(=O)[C@@H]2CCCN2C1=O` [Example 308] ({CH2CO}-[Cha][Bip][Bip(4'-NH)](Benzoyl(3-OCH2COOH))[Sar]HD[dR]IPVHLCG-NH2; thioether N-13), the IC50 was under 50 nM.
